Laboratory results reported in BindingDB's records for doi:10.7270/Q2M043S8 (University of Pittsburgh, 2006).

Each compound was assayed against T1, Dual specificity protein phosphatase 6 (Rattus norvegicus, UniProt Q64346) (assay: catalase influence on rat DUSP6 inhibition – biochemical, catalase added, probe assessment, dose response (AID 564)).
T1 sequence (Q64346 whole entry): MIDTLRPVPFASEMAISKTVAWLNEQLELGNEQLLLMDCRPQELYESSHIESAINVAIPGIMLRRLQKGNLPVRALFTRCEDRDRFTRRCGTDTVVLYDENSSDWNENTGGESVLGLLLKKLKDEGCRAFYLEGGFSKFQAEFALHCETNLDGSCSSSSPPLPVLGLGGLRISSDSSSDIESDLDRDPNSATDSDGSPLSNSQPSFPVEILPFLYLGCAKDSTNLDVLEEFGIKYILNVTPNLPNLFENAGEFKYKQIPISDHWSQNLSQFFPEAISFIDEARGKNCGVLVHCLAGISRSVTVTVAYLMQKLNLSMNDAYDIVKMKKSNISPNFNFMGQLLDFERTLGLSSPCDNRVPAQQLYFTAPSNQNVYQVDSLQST

SMILES	IC50 [µM]
[O-]/[N+](=C\c1ccncc1)c1ccccc1	> 50
O=C(c1cccs1)c1no[n+]([O-])c1C(=O)c1cccs1 [(5-oxidanidyl-4-thiophen-2-ylcarbonyl-1,2,5-oxadiazol-5-ium-3-yl)-thiophen-2-yl-methanone]	> 50
CC1=C(/C=C/C(C)=C/C=C/C(C)=C/C(=O)O)C(C)(C)CCC1 [ALL-TRANS-RETINOIC ACID]	> 50
Cc1cccc(NC(=O)c2cc(NC(=O)C3CCCCC3C(=O)O)ccc2N2CCCCC2)c1 (configuration not stated) [2-({[3-{[(3-methylphenyl)amino]carbonyl}-4-(1-piperidinyl)phenyl]amino}carbonyl)cyclohexanecarboxylic acid]	> 50
O=C(NC1(O)C(=O)c2ccccc2C1=O)c1ccccc1 [N-(2-hydroxy-1,3-dioxo-2-indenyl)benzamide]	> 50
COCCCn1c(N)c(C(=O)NCCC(C)C)c2nc3ccccc3nc21 [MLS000041744]	> 50
Cc1ccc(-c2csc(NC(=O)c3ccno3)n2)cc1 [MLS000081820]	> 50
[O-]/[N+](=C/c1ccc(F)cc1)c1ccccc1 [(E)-(4-fluorobenzylidene)(phenyl)azane oxide]	> 50
CCOc1cc(/C=C(/C#N)c2ccc(F)cc2)ccc1OCc1ccc(C(=O)O)o1 [5-[[4-[(E)-2-cyano-2-(4-fluorophenyl)ethenyl]-2-ethoxyphenoxy]methyl]furan-2-carboxylic acid]	> 50
CCCCn1c(SCC(=O)c2ccc(OC)cc2OC)nc2cc(S(N)(=O)=O)ccc21 [1-butyl-2-[2-(2,4-dimethoxyphenyl)-2-oxidanylidene-ethyl]sulfanyl-benzimidazole-5-sulfonamide]	> 50
COc1ccc(-c2cc3nc(C4CCN(C(=O)OC(C)(C)C)CC4)c(C(=O)O)cn3n2)cc1 [2-(4-methoxyphenyl)-5-[1-[(2-methylpropan-2-yl)oxy-oxomethyl]-4-piperidinyl]-6-pyrazolo[1,5-a]pyrimidinecarboxylic acid]	> 50
Cc1cc(NC(=O)c2ccc(S(=O)(=O)N3CCCC3)cc2)nc2c1c(=O)oc1ccccc12 [MLS000091355]	> 50
Cc1ccc(C)n1-c1cccc(C(=O)O)c1	> 50
COc1cc(/C=C(/C#N)c2ccc(F)cc2)ccc1OCc1ccc(C(=O)O)o1 [5-({4-[2-cyano-2-(4-fluorophenyl)vinyl]-2-methoxyphenoxy}methyl)-2-furoic acid]	> 50
N#Cc1c(N)sc(=S)c2c1CCN(Cc1ccccc1)C2 [3-Amino-7-benzyl-1-thioxo-5,6,7,8-tetrahydro-1H-thiopyrano[3,4-c]pyridine-4-carbonitrile]	47.9
CC(C)Sc1nc2sc3c(c2c2nnc(SCC(=O)NCc4ccco4)n12)CCCC3 [MLS000082957]	> 50
CCn1nc(-c2ccccc2)nc2c(=O)n(C)c(=O)nc1-2 [1-Ethyl-6-methyl-3-phenyl-1H-pyrimido[5,4-e][1,2,4]triazine-5,7-dione]	> 50
CCn1nc(-c2cccs2)nc2c(=O)n(C)c(=O)nc1-2 [1-ethyl-6-methyl-3-thiophen-2-yl-pyrimido[5,4-e][1,2,4]triazine-5,7-dione]	> 50
CCCCCC#CCC#CCC#CCC#CCCCC(=O)O	> 50

SMILES	IC50 [µM]
Cc1nc2cc(-c3cccc(F)c3)nn2c(C)c1CCC(=O)N1CCC2(CC1)OCCO2 [1-(1,4-dioxa-8-azaspiro[4.5]decan-8-yl)-3-[2-(3-fluorophenyl)-5,7-dimethyl-6-pyrazolo[1,5-a]pyrimidinyl]-1-propanone]	> 50
CCOC(=O)c1ccc2c(c1)C1C=CCC1C(C(=O)O)N2 (configuration not stated) [MLS-0025126.0001]	> 50
O=C1c2ccccc2-c2onc3ccc(NCCCn4ccnc4)c1c23 [SMR000044769]	47.6
O=C1C(=C2C(=O)c3ccccc3C2=O)Nc2ccccc21 [MLS000071738]	> 50
[O-]/[N+](=C\c1ccc(OC(F)F)cc1)c1ccccc1 [1-[4-(difluoromethoxy)phenyl]-N-phenylmethanimine oxide]	> 50
CCCCNC(=O)c1c(N)n(CCCOC)c2nc3ccccc3nc12 [2-amino-N-butyl-1-(3-methoxypropyl)-3-pyrrolo[3,2-b]quinoxalinecarboxamide]	> 50
Nc1nc2c(s1)CCc1c-2cnn1-c1ccccc1 [MLS000085948]	> 50
N#Cc1c(NC(=O)c2ccc(Br)o2)n(-c2ccccc2)c2nc3ccccc3nc12 [5-bromanyl-N-(3-cyano-1-phenyl-pyrrolo[3,2-b]quinoxalin-2-yl)furan-2-carboxamide]	> 50
Cc1c(N=c2c(=O)c3ccccc3c2=O)c(=O)n(-c2ccccc2)n1C [MLS000105950]	> 50
N#Cc1c(N2CCCC2)nc(N)c2c(N)nc(N3CCCC3)cc12 [SMR000061605]	> 50
O=C(Nc1ccccc1)c1ccc2nc(-c3ccco3)c(-c3ccco3)nc2c1 [2,3-di-2-furyl-N-phenyl-6-quinoxalinecarboxamide]	> 50
CCn1c(SCC(=O)Nc2ccc3c(c2)c2ccccc2n3CC)nnc1-c1ccco1 [MLS000050867]	> 50
CCCCCNC(=O)c1ccc2c(=O)[nH]c3c(C(=O)NCC4CCCO4)sc(=S)n3c2c1 (configuration not stated) [5-oxo-N3-(2-oxolanylmethyl)-N8-pentyl-1-sulfanylidene-4H-thiazolo[3,4-a]quinazoline-3,8-dicarboxamide]	> 50
CCCSc1nnc(NC(=O)c2sc3nc(-c4cccs4)ccc3c2N)s1 [3-amino-N-(5-propylsulfanyl-1,3,4-thiadiazol-2-yl)-6-thiophen-2-ylthieno[2,3-b]pyridine-2-carboxamide]	> 50
Cn1ncnc2c(=O)n(C)c(=O)nc1-2	> 50
CCCCn1c(NC(=O)c2ccccc2)c(C#N)c2nc3ccccc3nc21 [SMR000060333]	> 50
O=C(OC1CCCCC1)c1ccc2c(c1)C1C=CCC1C(C(=O)O)N2 (configuration not stated) [SMR000019385]	> 50
COc1ccc(Cn2c(C)nc3c(c2=O)c2nc4ccccc4nc2n3Cc2ccco2)cc1 [MLS000079944]	47.8
O=C1Nc2ccccc2SC(c2ccccc2)C1O (configuration not stated) [3-hydroxy-2-phenyl-2,3-dihydro-1,5-benzothiazepin-4(5H)-one]	> 50

SMILES	IC50 [µM]
CC(C)Cn1c(N)c(C(=O)COC(=O)c2cc(-c3ccco3)nc3ccccc23)c(=O)n(C)c1=O [2-(2-furanyl)-4-quinolinecarboxylic acid [2-[4-amino-1-methyl-3-(2-methylpropyl)-2,6-dioxo-5-pyrimidinyl]-2-oxoethyl] ester]	> 50
O=C1C=Cc2ccccc2C1=O [1,2-dihydronaphthalene-1,2-dione]	> 50
Cc1nc2c(C(=O)NCCC3=CCCCC3)c[nH]n2c(=O)c1Cl [6-chloro-N-(2-cyclohex-1-en-1-ylethyl)-7-hydroxy-5-methylpyrazolo[1,5-a]pyrimidine-3-carboxamide]	> 50
CCOc1ccc(-c2cc3nc(C4CCN(C(=O)OC(C)(C)C)CC4)c(C(=O)O)cn3n2)cc1 [2-(4-ethoxyphenyl)-5-[1-[(2-methylpropan-2-yl)oxy-oxomethyl]-4-piperidinyl]-6-pyrazolo[1,5-a]pyrimidinecarboxylic acid]	> 50
Cc1cc(C)n2c(SCC(=O)N3CCN(S(=O)(=O)c4ccc(Cl)cc4)CC3)nnc2n1 [1-[4-(4-chlorophenyl)sulfonyl-1-piperazinyl]-2-[(5,7-dimethyl-[1,2,4]triazolo[4,3-a]pyrimidin-3-yl)thio]ethanone]	> 50
CC(C)(C)N1C(=O)Cc2c1nc(N)c1c(N)nc(N3CCCCC3CO)c(C#N)c21 (configuration not stated) [5,6-bis(azanyl)-3-tert-butyl-8-[2-(hydroxymethyl)piperidin-1-yl]-2-oxidanylidene-1H-pyrrolo[2,3-c][2,7]naphthyridine-9-carbonitrile]	> 50
Cc1ccc(/C=C/C2=Cc3c(sc(NC(=O)CSc4nnc(N)[nH]4)c3C#N)C(C)(C)C2)o1 [2-[(5-azanyl-1H-1,2,4-triazol-3-yl)sulfanyl]-N-[3-cyano-7,7-dimethyl-5-[(E)-2-(5-methylfuran-2-yl)ethenyl]-6H-1-benzothiophen-2-yl]ethanamide]	> 50
COc1ccc(Br)cc1C=c1sc2nc(-c3ccco3)nn2c1=O [5-[(5-bromanyl-2-methoxy-phenyl)methylidene]-2-(furan-2-yl)-[1,3]thiazolo[3,2-b][1,2,4]triazol-6-one]	> 50
CCOc1ccc2noc3c2c1C(=O)c1ccccc1-3 [MLS000106837]	> 50
Nc1c(N2CCCC2)cc(Cl)c2nonc12 [(7-chloro-5-pyrrolidino-benzofurazan-4-yl)amine]	> 50
CCc1ccc(NC(=O)CSc2nc3ccccc3c(=O)n2CCN2CCOCC2)cc1 [MLS000095236]	> 50
COC(=O)c1ccccc1NC(=O)CN1C(=O)C2CCCN2c2ncc(Cl)cc21 (configuration not stated) [MLS000094302]	> 50
COc1ccc2noc3c2c1C(=O)c1ccccc1-3 [MLS000106874]	> 50
COc1ccc(-n2c(NC(=O)c3ccco3)c(C#N)c3nc4ccccc4nc32)cc1 [MLS000079925]	> 50
O=C(Nc1ccc2nc(-c3ccco3)c(-c3ccco3)nc2c1)N1CCCCCC1	> 50
FC(F)(F)c1ccc(N2CCOCC2)c(Nc2nc3ccccc3n3cnnc23)c1 [MLS000093276]	> 50
O=C1C=C(NCc2ccc(Cl)c(Cl)c2)CC1 [3-[(3,4-dichlorobenzyl)amino]cyclopent-2-en-1-one]	> 50
Cc1cccc(N2CCN(C(=O)Cc3c(C(=O)O)[nH]c4ccc(Cl)cc34)CC2)c1C [5-chloranyl-3-[2-[4-(2,3-dimethylphenyl)piperazin-1-yl]-2-oxidanylidene-ethyl]-1H-indole-2-carboxylic acid]	> 50
CC(=O)[C@@H]1[C@@H]2C(=O)N(c3ccc(F)c(Cl)c3)C(=O)[C@@H]2C2c3ccccc3C=CN21 (some centres not stated) [MLS000040594]	> 50
